Measurements published in paper PMC7106487, “Design, Synthesis and Discovery of N,N’‐Carbazoyl‐aryl‐urea Inhibitors of Zika NS5 Methyltransferase and Virus Replication” (Chemmedchem, 2020).
Like-named read-outs stand apart in the source and are kept apart here.

Tests used:
ZIKV NS5-MTase = molecular target: T1, ZIKV NS5-MTase (Zika virus, UniProt Q32ZE1); test: MTase inhibition assay ([3H]-SAM, GpppAC4 RNA substrate, DEAE filter binding); format: biochemical; details: for inhibition at 50 µM / inhibition of ZIKV NS5-MTase: initial screen, compounds at 50 μM, 30 min at 30 °C
T1 construct: made in house
Method: (§1) The library of compounds 9, 11, 12, 14, 15, 16 and 21 was then assessed on different purified recombinant MTases. All compounds were initially screened at 50 μM against ZIKV NS5‐MTase and hRNMT as well as against DENV NS5‐MTase due to its similarity with ZIKV protein. The SAM mimetic sinefungin was included as control.
(§2) The MTases were incubated with radiolabeled [^3H]‐SAM together with the GpppAC4 RNA substrate and the different compounds at 50 μM. The reaction was stopped after 30 mins at 30 °C. The sample products were filtered on a DEAE membrane to remove non‐incorporated [^3H]‐SAM, and radioactivity transferred on the RNA substrate was counted. […]
(§3) DENV, ZIKV and hRNMT MTase production and purification
(§4) The coding sequence of the ZIKV MTase domain was cloned in pDest 14 (Invitrogen) expression vector as recently described,9 and the DENV and ZIKV MTase were produced and purified following the protocols applied for the DENV MTase.10 The human N7-MTase (hRNMT) was cloned in pDest 14 (Invitrogen) expression vector as described.11 The hRNMT was produced in e.coli Rosetta (DE3) cells transformed with pDest14/6His -hRNMT and purified on immobilized-metal-affinity chromatography (IMAC, Amersham Biosciences) followed by hearine, as described previously.11
(§5) The MTase activity of the different recombinant proteins was assayed upon pre -incubation of the MTase (5 min) with a selected fragment and the reactions were started by addition of a […]
(§6) small capped RNA substrate GpppAC4 with the [3H]AdoMet.12 The MTase activity assay was performed in 20 µl samples containing 40 mM Tris-HCl pH 7.5, 5 mM DTT (except for hRNMT), 10 µM AdoMet (0.2-2 µCi [3H]SAM), 1 µM of DENV or ZIKV MTase or 200 nM of hRNMT, 1 µM GpppAC4 in presence of 1µl of compounds solubilized in DMSO 100%.
(§7) Reactions were incubated at 30°C for 30 min and stopped by 20-fold dilution in an ice-cold 100 µM AdoHcy (SAH) solution. Samples were then transferred onto a DEAE membrane (DEAE Filtermat; Wallac) by using a Filtermat Harvester (Packard Instruments) washed with 0.01 M ammonium formate (pH 8.0), water and 95 % ethanol, and the radioactivity transferred onto RNA was measured using a Wallac 1450 MicroBeta Trilux Liquid Scintillation Counter.
(§8) The inhibitor concentration at 50% activity (IC50) was determined by performing the MTase assays in presence of serial dilution of the inhibitor in DMSO (final concentration in the assay 5%). All data points were measured in duplicate. The IC50 values were determined by curve fitting with Prism software using a logistic dose-response function: % activity = 100/(1+[I]/IC50)b, where b corresponds to the slope factor and [I] to inhibitor concentration. […]
(§9) Spectrometer using low-resolution ESI or high-resolution nano ESI techniques. The purity of the compounds was assessed by reverse -phase liquid chromatography coupled with a mass spectrometer (Agilent series 1100 LC/MSD) with a UV detector at λ = 254 nm and an electrospray ionization source (ESI). HPLC analysis was carried out using a Perkin -Elmer 1100 HPLC system coupled with UV/Vis set to 254 nm. Mass spectra were acquired in positive mode scanning over the mass range of 50–1500. The following ion source parameters were used: drying gas flow, […]; nebulize pressure, 40 psig; and drying gas temperature, 350 […]
(§10) performed using commercially available pre-coated plates and visualized with UV light at 254 nm; KMnO4 was used to reveal the products. Flash column chromatography was carried out using Sigma Aldrich silica gel particle size, 40-63 µm particle size 60 Å. All reactions were conducted under a nitrogen atmosphere in oven-dried glassware unless stated otherwise. All solvents and commercially available reagents were used as received.

ZIKV = test: CPE-reduction assay, inhibition of ZIKV replication; set-up: species or system Zika virus (ZIKV); details: cell-based CPE-reduction assay; for EC50: Zika virus
Method: (§11) Finally, the ability of all the derivatives synthesized in this work to inhibit ZIKV replication was assessed. […]

in vitro [1] = format: cell-based; details: ZIKV CC50
Method: as §11

host cell = test: in vitro; format: cell-based
Method: as §11

DENV NS5-MTase = DENV NS5-MTase (Dengue virus type 3, UniProt P27915); test: MTase inhibition assay ([3H]-SAM, GpppAC4 RNA substrate, DEAE filter binding); format: biochemical; details: initial screen, compounds at 50 μM, 30 min at 30 °C
Method: as §1, §2, §3, §4, §5, §6, §7, §8, §9, §10

in vitro [2] = format: cell-based
DENV = test: Cell-based antiviral activity against DENV; details: Dengue virus; cell-based assay
hRNMT (human N7-MTase) = molecular target: T2, hRNMT (human N7-MTase) (Homo sapiens, UniProt O43148); test: MTase inhibition assay ([3H]-SAM, GpppAC4 RNA substrate, DEAE filter binding); format: biochemical; details: dose-response, 200 nM hRNMT, 10 µM AdoMet, 30 min at 30 °C
T2 construct: 6His (N); made in house; host or cells: E. coli Rosetta (DE3)
Method: as §1, §2, §3, §4, §5, §6, §7, §8, §9, §10

T1 sequence (Q32ZE1 2517-2781): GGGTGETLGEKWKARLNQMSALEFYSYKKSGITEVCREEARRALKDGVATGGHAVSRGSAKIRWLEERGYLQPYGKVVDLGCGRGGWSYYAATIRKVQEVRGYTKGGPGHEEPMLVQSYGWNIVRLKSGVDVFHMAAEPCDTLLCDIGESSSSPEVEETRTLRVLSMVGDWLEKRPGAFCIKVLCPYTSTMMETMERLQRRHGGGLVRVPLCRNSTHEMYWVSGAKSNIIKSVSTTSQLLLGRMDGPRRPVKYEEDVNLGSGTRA
T2 sequence (O43148 whole entry): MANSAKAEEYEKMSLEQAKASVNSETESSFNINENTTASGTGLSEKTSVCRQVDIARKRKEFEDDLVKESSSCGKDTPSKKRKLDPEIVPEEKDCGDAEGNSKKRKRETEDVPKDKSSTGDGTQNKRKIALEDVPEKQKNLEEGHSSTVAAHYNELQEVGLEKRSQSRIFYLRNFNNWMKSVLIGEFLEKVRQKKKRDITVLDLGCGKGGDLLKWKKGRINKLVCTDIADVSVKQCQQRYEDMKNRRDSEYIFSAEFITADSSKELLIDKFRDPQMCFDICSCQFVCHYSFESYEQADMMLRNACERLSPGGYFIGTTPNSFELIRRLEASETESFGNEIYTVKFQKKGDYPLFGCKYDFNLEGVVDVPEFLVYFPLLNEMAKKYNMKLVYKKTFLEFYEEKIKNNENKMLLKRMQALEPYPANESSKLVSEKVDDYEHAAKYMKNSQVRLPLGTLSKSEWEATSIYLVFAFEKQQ
Sequence of DENV NS5-MTase (P27915 2491-2753): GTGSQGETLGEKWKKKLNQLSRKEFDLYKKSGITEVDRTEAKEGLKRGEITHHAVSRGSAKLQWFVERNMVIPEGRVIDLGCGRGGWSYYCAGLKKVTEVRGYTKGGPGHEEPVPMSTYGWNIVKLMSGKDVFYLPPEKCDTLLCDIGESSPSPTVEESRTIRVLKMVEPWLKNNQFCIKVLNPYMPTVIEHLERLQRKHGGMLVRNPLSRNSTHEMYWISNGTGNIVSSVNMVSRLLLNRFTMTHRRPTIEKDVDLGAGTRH

Row | SMILES | IC50 (ZIKV NS5-MTase) [µM] | EC50 (ZIKV) [µM] | CC50 (in vitro [1]) [µM] | inhibition at 50 µM (ZIKV NS5-MTase) [%] | IC50 (hRNMT (human N7-MTase)) [µM] | also measured
1 | COc1ccc(NC(=O)Nc2ccc3c(c2)c2ccccc2n3CCc2ccccc2)c(OC)c1 [Compound 21f] | 26 ± 1.2 | > 20 | 20 |  |  | ZIKV CC50 (host cell): showed toxicity
2 | COc1ccc(NC(=O)Nc2ccc3c(c2)c2ccccc2n3Cc2ccccc2)c(OC)c1 [Compound 21e] | 48 ± 1.3 |  |  |  |  | 
3 | CCn1c2ccccc2c2cc(NC(=O)Nc3ccc(N)cc3C)ccc21 [Compound 15] |  | 1.67 | > 12.5 | 25 |  | inhibition of DENV NS5-MTase (DENV NS5-MTase): did not show any effect; CC50 (in vitro [2]): 20 µM; EC50 (DENV): 9.75 µM
4 | Nc1ncnc2c1ncn2[C@@H]1O[C@H](C[C@@H](N)CC[C@H](N)C(=O)O)[C@@H](O)[C@H]1O [Sinefungin, reference compound] | 1.18 ± 0.05 |  |  |  |  | 
5 | CCn1c2ccccc2c2cc(NC(=O)Nc3ccc([N+](=O)[O-])cc3Cl)ccc21 [Compound 9a] | 46 ± 1.1 | > 50 | 30.7 | > 30 | ~122 | 
6 | CCn1c2ccccc2c2cc(NC(=O)Nc3ccc(C#N)cc3)ccc21 [Compound 9b] | ~144 | > 10 | > 10 |  | ~253 | 
7 | Cc1cc([N+](=O)[O-])ccc1NC(=O)Nc1ccc2c(c1)c1ccccc1n2CCc1ccccc1 [Compound 21b] | 114 ± 1.3 | 12.5 | 20 | > 30 |  | ZIKV CC50 (host cell): showed toxicity
8 | O=C(Nc1ccc(I)cc1)Nc1ccc2c(c1)c1ccccc1n2CCc1ccccc1 [Compound 21d] |  | 25 | 100 |  |  | inhibition of ZIKV NS5-MTase (ZIKV NS5-MTase): poor inhibition
9 | CCn1c2ccccc2c2cc(NC(=S)NCc3ccccc3)ccc21 [Compound 11b] | 70 ± 1.3 | 4.78 | 19.6 |  | ~112 | 
10 | CCn1c2ccccc2c2cc(NC(=O)Nc3ccc([N+](=O)[O-])cc3C)ccc21 [Compound 6] | 35 ± 5 | > 3.99 | > 3.99 | > 30 | 13.9 ± 0.7 | ZIKV EC50 (ZIKV): devoid of any antiviral activity; CC50 (host cell): 3.99 µM
11 | CCn1c2ccccc2c2cc(NC(=O)Nc3ccc(C(F)(F)F)cc3)ccc21 [Compound 9f] |  |  |  |  | 6.8 ± 0.5 | 
12 | O=C(Nc1ccc(I)cc1)Nc1ccc2c(c1)c1ccccc1n2Cc1ccccc1 [Compound 21c] | 23 ± 1.2 |  |  | > 30 |  | 
13 | CCn1c2ccccc2c2cc(NC(=O)Nc3ccc(OC)cc3OC)ccc21 [Compound 9c] |  | > 10 | > 10 |  | 27.4 ± 1.9 | 
14 | CCn1c2ccccc2c2cc(NC(=O)Nc3ccc(I)cc3)ccc21 [Compound 9d] | ~397 | > 50 | > 50 | > 30 | 5.3 ± 0.4 | 
15 | CCn1c2ccccc2c2cc(NC(=O)C(N)CCCCN)ccc21 (stereo not shown) [Compound 16] |  |  |  |  |  | inhibition of ZIKV NS5-MTase (ZIKV NS5-MTase): barely inhibited
